Results published in US6875576B2, “Method for evaluating therapeutic efficacy” (Kosan Biosciences, Inc., priority 2001, dated 2005).
Blank lines part the entries; values can stand above or below the compound they belong to.

Legend:
[1] = treating gastroesophageal reflux disease; Van Her Waarde et al. 2000; cited from earlier work
human motilin receptor [2] = target: T1, human motilin receptor (Homo sapiens, UniProt O43193); assay: Motilin receptor activation assay (aequorin luminescence); format: cell-based; conditions: motilin receptor agonism
T1 construct: expressed in transfected cells; host or cells: HEK293 (ATCC CRL-1573), transiently or stably transfected with pkos127-159 and pmtAEQ
T1 sequence (O43193 whole entry): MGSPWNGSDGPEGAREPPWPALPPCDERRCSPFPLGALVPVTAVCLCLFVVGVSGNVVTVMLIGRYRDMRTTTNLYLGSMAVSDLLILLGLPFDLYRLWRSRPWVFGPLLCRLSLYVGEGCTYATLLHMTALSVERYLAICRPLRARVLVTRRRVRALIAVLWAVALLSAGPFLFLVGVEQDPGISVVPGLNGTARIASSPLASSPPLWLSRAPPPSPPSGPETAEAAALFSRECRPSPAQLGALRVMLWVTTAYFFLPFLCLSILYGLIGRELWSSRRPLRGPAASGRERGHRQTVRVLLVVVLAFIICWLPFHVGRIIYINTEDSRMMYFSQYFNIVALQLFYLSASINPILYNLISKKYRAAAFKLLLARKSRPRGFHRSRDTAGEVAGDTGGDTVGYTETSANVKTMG
Description: A gene encoding the target receptor is cloned and placed into a mammalian expression vector such as pcDNA3.1. The gene may be synthetic or naturally derived. Next, pmtAEQ, an aequorin expression plasmid available from Molecular Probes, and the receptor expression construct are transfected into HEK293 cells using a commercially available transfection kit such as Lipofectamine Plus (Gibco BRL). At this point, a stable cell line may be selected from the transfection mix using common techniques, or the heterologous mixture obtained from transient transfection may be used directly. […] A 100 uL aliquot of cells is added to each well, and following each addition, the integrated luminescence is measured for 30-60 seconds and is taken as the agonist response. Next, 100 uL of 1% triton X-100 in PBS is injected into each well, and the integrated luminescence is measured a second time over 30-60 seconds and is taken as the triton response. A value F is calculated as equaled to the agonist response divided by the sum of the agonist response and the triton response. […]
(§1) Flasks containing HEK293 cells either transiently or stably expressing the motilin receptor and aequorin were used in receptor activation assays. Cells were grown to 80-100% confluence in T175 flasks containing MEMalpha medium with 10% v/v fetal bovine serum, harvested by trypsinization, and counted using a hemocytometer. […]

Acid stability = format: physicochemical; conditions: stomach environment
human motilin receptor [3] = target: T1, human motilin receptor; assay: Efficacy index: ratio of desensitization value to potency value, motilin receptor and aequorin co-expressed; format: cell-based; conditions: ratio of desensitization value (IC50) to potency value (EC50); cells co-expressing motilin receptor and aequorin
Description: In one aspect of the present invention, the comparison of the potency value and the desensitization value is accomplished by calculating a ratio of the desensitization value to the potency value. This ratio is termed the “efficacy index”. […] In other words, because the concentration required for the desired biological response is also the concentration that induces desensitization, the compound is not likely to be therapeutically effective if the desired response is receptor activation. Under these circumstances, the concentration required for the desired biological response should be well below the concentration that induces desensitization. […]
as §1
Stock solutions (20 mM) of test compounds were made in ethanol and diluted 100-fold into PBS. […] One of the injectors was used to add 100 uL of the cell suspension (˜5×10^4 to 10^5) to each well, and the bioluminescence response was measured over the course of 30-60 seconds. […] The F value of the cells to each test compound was calculated using equation 1, and data were fit to equation 2 to obtain EC50 values for the test compounds. […]

C3a receptor = target: T2, C3a receptor (Homo sapiens, UniProt Q16581); assay: Ca2+ mobilization via FLIPR; format: cell-based
T2 construct: expressed in transfected cells; host or cells: HEK 293, transient transfection, with or without promiscuous G protein Galpha16
T2 sequence (Q16581 1-482): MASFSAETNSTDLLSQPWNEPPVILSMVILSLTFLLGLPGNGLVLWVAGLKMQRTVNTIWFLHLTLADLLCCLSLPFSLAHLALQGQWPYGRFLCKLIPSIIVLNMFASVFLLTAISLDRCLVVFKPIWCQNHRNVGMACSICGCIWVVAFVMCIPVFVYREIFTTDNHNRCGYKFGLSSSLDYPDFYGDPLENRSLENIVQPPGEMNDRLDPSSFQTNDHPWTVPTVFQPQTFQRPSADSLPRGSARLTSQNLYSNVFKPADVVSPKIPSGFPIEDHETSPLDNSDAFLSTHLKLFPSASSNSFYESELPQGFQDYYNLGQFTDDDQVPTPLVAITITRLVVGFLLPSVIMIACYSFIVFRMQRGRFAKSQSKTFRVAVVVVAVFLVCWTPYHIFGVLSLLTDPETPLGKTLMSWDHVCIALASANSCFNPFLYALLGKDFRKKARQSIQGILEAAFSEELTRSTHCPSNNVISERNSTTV
Procedure: 1. 24 h after receptor transfection harvest and plate cells into poly-D-lysine-coated 96-well black-walled/clear bottom microtiter plates (Becton Dickinson Labware) at 3×10^4 cells per well.
2. After 18 to 24 h aspirate off medium and add 100 μl of fresh EMEM containing 4 μM Fluo-3/AM (Molecular Probes; prepare stock solution at 2 mM in DMSO containing 20% pluronic acid), 0.1% BSA, and […] to each well and incubate for 1 h at 37° C.
3. Aspirate medium and replace with 100 μl of the same medium, but without Fluo-3/AM, and incubate for 10 min at 37° C. Wash cells three times with a Denley cell washer (Labsystems) with Krebs Ringer Henscleit (KRH; 118 mM NaCl, 4.6 mM KCl, […] NaHCO3, 1 mM KH2PO4, 1.1 mM glucose, 1.1 mM MgCl2) containing 0.1% BSA, […], and 20 mM HEPES pH 7.4 (buffer A). After the last wash aspirate down to a final volume of 100 μl.
4. Prepare plates of potential ligands, tissue extracts, or compound libraries in 96-well polypropylene microplates at three times the final concentration in buffer A and warm to 37° C.
5. Place microplates containing Fluo-3 loaded cells and the ligand plates in FLIPR and monitor. At initiation of the fluorescence recording read measurements every 1 s for 60 s and then every 3 s for the following 60 s. […] FLIPR software normalizes fluorescent readings to give equivalent readings for all wells at zero time.

Compound: CC[C@H]1OC(=O)[C@H](C)[C@@H](OC2C[C@@](C)(OC)C[C@H](C)O2)[C@H](C)[C@@H](OC2O[C@H](C)C[C@H](N(C)CC)[C@H]2O)[C@]2(C)CC(C)=C(O2)[C@H](C)[C@@H](O)[C@H]1C (stereo partly drawn) [ABT-229]
clinical efficacy [1]: lack of efficacy

Compound: CC[C@H]1OC(=O)[C@H](C)[C@@H](OC2C[C@@](C)(OC)[C@@H](O)[C@H](C)O2)[C@H](C)[C@@H](OC2O[C@H](C)C[C@H](N(C)C)[C@H]2O)[C@]2(C)CC(C)=C(O2)[C@H](C)[C@@H](O)[C@]1(C)O (stereo partly drawn) [erythromycin 6,9-enol ether]
potency (EC50) (human motilin receptor [2]): nanomolar range | stability in acid (Acid stability): unstable in acid | efficacy index (human motilin receptor [3]): greater than 20,000

Ca2+ mobilization response (C3a receptor; C3a receptor co-expressed with Gα16 in HEK 293 cells): robust responses | Ca2+ mobilization response (C3a receptor; C3a receptor expressed alone in HEK 293 cells): weak or no Ca^2+ mobilization responses
Compound: C3a: ligand of the C3a receptor
